From US20100298141A1, “SUBSTITUTED PYRIDINE N-OXIDE HERBICIDES” (E. I. DU PONT DE NEMOURS AND COMPANY, priority 2007, published 2010)

Columns and labels:
catchweed bedstraw = assay: Test C pre-/postemergence test; type: in vivo, Galium aparine; settings: for Plant response rating, Galium: 31 g ai/ha, scale 0 to 100 (0 no effect, 100 complete control)
Summary of the method: (§1)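 Test chemicals were formulated with surfactant in a non-phytotoxic solvent and sprayed both on freshly planted seeds (preemergence) and on 1- to 4-leaf plants of 2–18 cm (postemergence). Flooded-paddy pots received compound directly into 3 cm of standing water, maintained for the test.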

yellow nutsedge = assay: Test C pre-/postemergence test; type: in vivo, Cyperus esculentus; settings: for Plant response rating, Nutsedge, Yellow: 31 g ai/ha, scale 0 to 100 (0 no effect, 100 complete control)
Summary of the method: as §1

corn = assay: Test A pre-/postemergence greenhouse test; type: in vivo, Zea mays; settings: for Corn plant response rating: 0 to 100 scale; for Plant response rating, Corn: 0 to 100 scale where 0 is no effect and 100 is complete control
Summary of the method: (§2)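 Seeds sown in a loam soil–sand blend got a preemergence directed soil spray of compound in a non-phytotoxic solvent mixture containing surfactant. Postemergence sprays of the same formulation went at the same time onto plants 2–10 cm tall at the one- to two-leaf stage. Injury was scored visually against untreated controls after about ten days in the greenhouse.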

wheat [1] = assay: Test C pre-/postemergence test; type: in vivo, Triticum aestivum; settings: for Plant response rating, Wheat: 31 g ai/ha, scale 0 to 100 (0 no effect, 100 complete control)
Summary of the method: as §1

pigweed = assay: Test C pre-/postemergence test; type: in vivo, Amaranthus retroflexus; settings: for Plant response rating, Pigweed: 31 g ai/ha, scale 0 to 100 (0 no effect, 100 complete control)
Summary of the method: as §1

soybean = assay: Test C pre-/postemergence test; type: in vivo, Glycine max; settings: for Plant response rating, Soybean: 31 g ai/ha, scale 0 to 100 (0 no effect, 100 complete control)
Summary of the method: as §1

barnyardgrass = assay: Test C flooded paddy test; type: in vivo, Echinochloa crus-galli; settings: Flood
Summary of the method: (§3)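 Compound was added to standing water 3 cm above soil, flood maintained, and plants held in a greenhouse before visual scoring against controls at 13 to 15 days.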

morningglory [2] = assay: Test C pre-/postemergence test; type: in vivo, Ipomoea coccinea; settings: for Plant response rating, Morningglory: 31 g ai/ha, scale 0 to 100 (0 no effect, 100 complete control)
Summary of the method: as §1

morningglory [3] = assay: Test A pre-/postemergence greenhouse test; type: in vivo, Ipomoea spp.; settings: for Morningglory plant response rating: 0 to 100 scale; for Plant response rating, Morningglory: 0 to 100 scale where 0 is no effect and 100 is complete control
Summary of the method: as §2

Italian ryegrass = assay: Test C pre-/postemergence test; type: in vivo, Lolium multiflorum; settings: for Plant response rating, Ryegrass, Italian: 31 g ai/ha, scale 0 to 100 (0 no effect, 100 complete control)
Summary of the method: as §1

Goosegrass = assay: Test C pre-/postemergence test; type: in vivo, Eleusin indica; settings: for Plant response rating, Goosegrass: 31 g ai/ha, scale 0 to 100 (0 no effect, 100 complete control)
Summary of the method: as §1

umbrella sedge = assay: Test C flooded paddy test; type: in vivo, Cyperus difformis; settings: Flood
Summary of the method: as §3

[4] = test system: common (oilseed) sunflower; assay: Test C pre-/postemergence test; type: in vivo, Helianthus annuus; settings: for Plant response rating, Sunflower: 31 g ai/ha, scale 0 to 100 (0 no effect, 100 complete control)
Summary of the method: as §1

bermudagrass = assay: Test C pre-/postemergence test; type: in vivo, Cynodon dactylon; settings: for Plant response rating, Bermudagrass: 31 g ai/ha
Summary of the method: as §1

giant foxtail = assay: Test A pre-/postemergence greenhouse test; type: in vivo, Setaria faberi; settings: for Foxtail, Giant plant response rating: 0 to 100 scale; for Plant response rating, Foxtail, Giant: 0 to 100 scale where 0 is no effect and 100 is complete control
Summary of the method: as §2

crabgrass = assay: Test A pre-/postemergence greenhouse test; type: in vivo, Digitaria sanguinalis; settings: for Crabgrass, Large plant response rating: 0 to 100 scale; for Plant response rating, Crabgrass, Large: 0 to 100 scale where 0 is no effect and 100 is complete control
Summary of the method: as §2

wheat [5] = assay: Test A pre-/postemergence greenhouse test; type: in vivo, Triticum aestivum; settings: for Wheat plant response rating: 0 to 100 scale; for Plant response rating, Wheat: 0 to 100 scale where 0 is no effect and 100 is complete control
Summary of the method: as §2

[6] = 62 g ai/ha, Preemergence, scale 0 to 100
[7] = Postemergence, 125 g ai/ha, 0 is no effect, 100 is complete control
[8] = Postemergence, 500 g ai/ha, 0 is no effect, 100 is complete control
[9] = Preemergence, 125 g ai/ha, 0 no effect, 100 complete control
[10] = 31 g ai/ha, scale 0 to 100 (0 no effect, 100 complete control)
[11] = 62 g ai/ha, scale 0 to 100, 0 no effect, 100 complete control, 13 to 15 days
[12] = 125 g ai/ha, scale 0 to 100, 0 no effect, 100 complete control, 13 to 15 days
[13] = 250 g ai/ha, scale 0 to 100, 0 no effect, 100 complete control, 13 to 15 days
[14] = 62 g ai/ha, Preemergence, scale 0 to 100 (0 no effect, 100 complete control)
[15] = Preemergence, scale 0 to 100 (0 no effect, 100 complete control)
[16] = 125 g ai/ha, preemergence, scale 0 (no effect) to 100 (complete control)
[17] = preemergence, 250 g ai/ha, scale 0 (no effect) to 100 (complete control)

## Cc1cc[n+]([O-])c(S(=O)(=O)Cc2c(C(F)(F)F)nn(C)c2OCC(F)(F)F)c1 [Compound 31]
Catchweed bedstraw; [6]
  Galium plant response rating: 100
Catchweed bedstraw; Preemergence
  Plant response rating, Galium: 100
Catchweed bedstraw; Preemergence, 250 g ai/ha
  Plant response rating (0 to 100), Galium: 100
Yellow nutsedge; [6]
  Nutsedge, Yellow plant response rating: 100
Yellow nutsedge; Preemergence
  Plant response rating, Nutsedge, Yellow: 60
corn; [7]
  Corn plant response rating: 40
corn; [8]
  Corn plant response rating: 40
corn; [9]
  Corn plant response rating: 0
corn; Preemergence, 500 g ai/ha
  Plant response rating, Corn: 50
Wheat [1]; [6]
  Wheat plant response rating: 30
Wheat [1]; Preemergence
  Plant response rating, Wheat: 0
pigweed; [6]
  Pigweed plant response rating: 100
pigweed; Preemergence
  Plant response rating, Pigweed: 100
soybean; [6]
  Soybean plant response rating: 15
soybean; Preemergence
  Plant response rating, Soybean: 10
barnyardgrass; [10]
  Plant response rating, Barnyardgrass: 0
barnyardgrass; [11]
  Plant response rating, Barnyardgrass: 0
barnyardgrass; [12]
  Plant response rating, Barnyardgrass: 30
barnyardgrass; [13]
  Plant response rating, Barnyardgrass: 75
Morningglory [2]; [6]
  Morningglory plant response rating: 100
Morningglory [2]; Preemergence
  Plant response rating, Morningglory: 85
Morningglory [3]; [7]
  Morningglory plant response rating: 60
Morningglory [3]; [8]
  Morningglory plant response rating: 80
Morningglory [3]; [9]
  Morningglory plant response rating: 90
Morningglory [3]; Preemergence, 500 g ai/ha
  Plant response rating, Morningglory: 100
Italian ryegrass; [6]
  Ryegrass, Italian plant response rating: 60
Italian ryegrass; Preemergence
  Plant response rating, Ryegrass, Italian: 40
Goosegrass; [6]
  Goosegrass plant response rating: 100
Goosegrass; Preemergence
  Plant response rating, Goosegrass: 100
Goosegrass; Preemergence, 250 g ai/ha
  Plant response rating (0 to 100), Goosegrass: 100
Umbrella sedge; [10]
  Plant response rating, Sedge, Umbrella: 65
Umbrella sedge; [11]
  Plant response rating, Sedge, Umbrella: 85
Umbrella sedge; [12]
  Plant response rating, Sedge, Umbrella: 100
Umbrella sedge; [13]
  Plant response rating, Sedge, Umbrella: 100
[4]; [6]
  Sunflower plant response rating: 20
[4]; Preemergence
  Plant response rating, Sunflower: 20
bermudagrass; [14]
  Bermudagrass plant response rating: 100
bermudagrass; [15]
  Plant response rating, Bermudagrass: 100
bermudagrass; Preemergence, 250 g ai/ha
  Plant response rating (0 to 100), Bermudagrass: 100
bermudagrass; preemergence, 125 g ai/ha, scale 0 (no effect) to 100 (complete control)
  Bermudagrass plant response rating: 100
Giant foxtail; [7]
  Foxtail, Giant plant response rating: 80
Giant foxtail; [8]
  Foxtail, Giant plant response rating: 90
Giant foxtail; [9]
  Foxtail, Giant plant response rating: 100
Giant foxtail; Preemergence, 500 g ai/ha
  Plant response rating, Foxtail, Giant: 100
crabgrass; [7]
  Crabgrass, Large plant response rating: 70
crabgrass; [8]
  Crabgrass, Large plant response rating: 80
crabgrass; [9]
  Crabgrass, Large plant response rating: 90
crabgrass; Preemergence, 500 g ai/ha
  Plant response rating, Crabgrass, Large: 100
Wheat [5]; [7]
  Wheat plant response rating: 50
Wheat [5]; [8]
  Wheat plant response rating: 60
Wheat [5]; [9]
  Wheat plant response rating: 60
Wheat [5]; Preemergence, 500 g ai/ha
  Plant response rating, Wheat: 80

## CC(c1c(C(F)(F)F)nn(CC(F)(F)F)c1Cl)[S+]([O-])c1cccc[n+]1[O-] (stereo not shown) [Compound 46]
Catchweed bedstraw; [6]
  Galium plant response rating: 0
Catchweed bedstraw; [16]
  Galium plant response rating: 85
Catchweed bedstraw; Preemergence
  Plant response rating, Galium: 0
Catchweed bedstraw; [17]
  Galium plant response rating: 90
Yellow nutsedge; [6]
  Nutsedge, Yellow plant response rating: 60
Yellow nutsedge; [16]
  Nutsedge, Yellow plant response rating: 65
Yellow nutsedge; Preemergence
  Plant response rating, Nutsedge, Yellow: 60
Yellow nutsedge; [17]
  Nutsedge, Yellow plant response rating: 100
corn; Postemergence, 125 g ai/ha
  Plant response rating, Corn: 0
corn; [8]
  Corn plant response rating: 0
corn; [9]
  Corn plant response rating: 0
corn; Preemergence, 500 g ai/ha
  Plant response rating, Corn: 0
Wheat [1]; [6]
  Wheat plant response rating: 100
Wheat [1]; [16]
  Wheat plant response rating: 100
Wheat [1]; Preemergence
  Plant response rating, Wheat: 100
Wheat [1]; [17]
  Wheat plant response rating: 100
pigweed; [6]
  Pigweed plant response rating: 90
pigweed; [16]
  Pigweed plant response rating: 100
pigweed; Preemergence
  Plant response rating, Pigweed: 0
pigweed; [17]
  Pigweed plant response rating: 100
soybean; [6]
  Soybean plant response rating: 0
soybean; [16]
  Soybean plant response rating: 0
soybean; Preemergence
  Plant response rating, Soybean: 0
soybean; [17]
  Soybean plant response rating: 25
barnyardgrass; [11]
  Plant response rating, Barnyardgrass: 10
barnyardgrass; [13]
  Plant response rating, Barnyardgrass: 60
Morningglory [2]; [6]
  Morningglory plant response rating: 100
Morningglory [2]; [16]
  Morningglory plant response rating: 100
Morningglory [2]; Preemergence
  Plant response rating, Morningglory: 100
Morningglory [2]; [17]
  Morningglory plant response rating: 100
Morningglory [3]; Postemergence, 125 g ai/ha
  Plant response rating, Morningglory: 0
Morningglory [3]; [8]
  Morningglory plant response rating: 60
Morningglory [3]; [9]
  Morningglory plant response rating: 30
Morningglory [3]; Preemergence, 500 g ai/ha
  Plant response rating, Morningglory: 90
Italian ryegrass; [6]
  Ryegrass, Italian plant response rating: 55
Italian ryegrass; [16]
  Ryegrass, Italian plant response rating: 80
Italian ryegrass; Preemergence
  Plant response rating, Ryegrass, Italian: 0
Italian ryegrass; [17]
  Ryegrass, Italian plant response rating: 100
Goosegrass; [6]
  Goosegrass plant response rating: 100
Goosegrass; [16]
  Goosegrass plant response rating: 100
Goosegrass; Preemergence
  Plant response rating, Goosegrass: 98
Goosegrass; [17]
  Goosegrass plant response rating: 100
Umbrella sedge; [13]
  Plant response rating, Sedge, Umbrella: 70
[4]; [6]
  Sunflower plant response rating: 0
[4]; [16]
  Sunflower plant response rating: 0
[4]; Preemergence
  Plant response rating, Sunflower: 0
[4]; [17]
  Sunflower plant response rating: 40
bermudagrass; [14]
  Bermudagrass plant response rating: 100
bermudagrass; [16]
  Bermudagrass plant response rating: 100
bermudagrass; [15]
  Plant response rating, Bermudagrass: 100
bermudagrass; [17]
  Bermudagrass plant response rating: 100
Giant foxtail; Postemergence, 125 g ai/ha
  Plant response rating, Foxtail, Giant: 70
Giant foxtail; [8]
  Foxtail, Giant plant response rating: 80
Giant foxtail; [9]
  Foxtail, Giant plant response rating: 90
Giant foxtail; Preemergence, 500 g ai/ha
  Plant response rating, Foxtail, Giant: 100
crabgrass; Postemergence, 125 g ai/ha
  Plant response rating, Crabgrass, Large: 70
crabgrass; [8]
  Crabgrass, Large plant response rating: 80
crabgrass; [9]
  Crabgrass, Large plant response rating: 70
crabgrass; Preemergence, 500 g ai/ha
  Plant response rating, Crabgrass, Large: 100
Wheat [5]; Postemergence, 125 g ai/ha
  Plant response rating, Wheat: 0
Wheat [5]; [8]
  Wheat plant response rating: 50
Wheat [5]; [9]
  Wheat plant response rating: 0
Wheat [5]; Preemergence, 500 g ai/ha
  Plant response rating, Wheat: 60
